Source: ChEMBL document CHEMBL1641384, “QSAR of adenosine receptor antagonists: Exploring physicochemical requirements for binding of pyrazolo[4,3-e]-1,2,4-triazolo[1,5-c]pyrimidine derivatives with human adenosine A(3) receptor subtype” (Bioorg Med Chem Lett, 2011)

Target: T1, Adenosine receptor A3 (Homo sapiens, UniProt P0DMS8)
T1 sequence (P0DMS8 whole entry): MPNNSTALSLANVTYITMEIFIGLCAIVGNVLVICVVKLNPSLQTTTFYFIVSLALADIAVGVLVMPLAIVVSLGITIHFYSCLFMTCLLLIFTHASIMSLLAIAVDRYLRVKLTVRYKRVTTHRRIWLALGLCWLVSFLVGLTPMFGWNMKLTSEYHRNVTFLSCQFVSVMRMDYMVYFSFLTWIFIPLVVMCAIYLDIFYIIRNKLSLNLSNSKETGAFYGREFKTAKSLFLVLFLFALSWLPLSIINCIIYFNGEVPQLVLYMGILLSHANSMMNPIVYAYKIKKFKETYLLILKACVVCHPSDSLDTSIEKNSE
Test: Displacement of [3H]MRE3008-F20 from human adenosine A3 receptor expressed in CHO cells after 120 mins
Assay type: cell-based

Point of comparison: `CCCCCCCCn1cc2c(nc(NC(=O)Nc3ccc(C)cc3)n3nc(-c4ccco4)nc23)n1`, Ki 4.07 nM. Against it:
- CCn1cc2c(nc(NC(=O)Nc3ccc(OC)cc3)n3nc(-c4ccco4)nc23)n1 — 5.1-fold lower, 0.794 nM
- Cn1cc2c(nc(NC(=O)Nc3ccc4c(c3)OCO4)n3nc(-c4ccco4)nc23)n1 — 17-fold lower, 0.24 nM
- CCCn1cc2c(nc(N)n3nc(-c4ccco4)nc23)n1 — 81-fold higher, 331 nM
- CCCn1cc2c(nc(NC(=O)Nc3cccc(Cl)c3)n3nc(-c4ccco4)nc23)n1 — 2.6-fold lower, 1.58 nM
- CCn1cc2c(nc(N)n3nc(-c4ccco4)nc23)n1 — 100-fold higher, 407 nM
- CCn1cc2c(nc(NC(=O)Nc3cccc(Cl)c3)n3nc(-c4ccco4)nc23)n1 — 4.5-fold lower, 0.912 nM
- CCCn1cc2c(nc(NC(=O)Nc3ccc4c(c3)OCO4)n3nc(-c4ccco4)nc23)n1 — 13-fold lower, 0.302 nM
- CCCCn1cc2c(nc(NC(=O)Nc3ccc4c(c3)OCO4)n3nc(-c4ccco4)nc23)n1 — 8.1-fold lower, 0.501 nM
- CCn1cc2c(nc(NC(=O)Nc3ccc4c(c3)OCO4)n3nc(-c4ccco4)nc23)n1 — 15-fold lower, 0.269 nM
